Reference: patent publication US11090285B2, “Treatment of circadian rhythm disorders” (Vanda Pharmaceuticals Inc., priority 2013, dated 2021)
Entries after “also recorded” stand apart in the source; their conditions may differ.

Assays:
patients with Non-24 = assay: SET Study, Phase III randomized, double-masked, placebo-controlled; format: in vivo, human
Description: Specifically, patients were orally administered 20 mg tasimelteon per day for at least 12 weeks prior to re-estimating tau. Patients were selected for randomization or open label based on baseline tau estimates. Drug was administered at about 1 hour prior to target sleep time, as determined by patients based on a 9 hour nighttime sleep period.
The SET study was an 84 patient randomized, double-masked, placebo-controlled study in patients with Non-24. The primary endpoints for this study were Entrainment of the melatonin (aMT6s) rhythm to the 24-hour clock and Clinical Response as measured by Entrainment plus a score of greater than or equal to 3 on the following N24CRS:
The SET study also assessed a number of secondary endpoints including Entrainment of cortisol rhythm and a broad range of clinical sleep and wake parameters. These parameters included improvement in the total nighttime sleep in the worst 25% of nights (LQ-nTST), decrease in the total daytime sleep duration in the worst 25% of days (UQ-dTSD) and midpoint of sleep timing (MoST) which is derived from a combination of the sleep reported for both nighttime and daytime. CGI-C is a seven-point rating scale of global functioning with lower scores indicating larger improvements.

[1] = tmax after administration; parameters: species or system human; conditions: in vivo
Description: The ability to administer tasimelteon as little as about one hour prior to sleep time is advantageous because it allows for avoidance of pre-sleep time soporific effects, because it allows for administration of higher doses that might have greater soporific effects, and because it allows for pharmacologic intervention at a different phase of the sleep cycle than if it were administered earlier. Without wishing to be bound to any particular theory, it appears that the ability to administer tasimelteon so close to sleep time is a function of its tmax, which is approximately one-half hour. Melatonin, on the other hand, which has a tmax of approximately 2 hours or more, is administered several hours before sleep time, which can cause premature sleepiness; to avoid this soporific effect, melatonin is sometimes administered at sub-optimal doses.

MT2R = target: T1, MT2R (Homo sapiens, UniProt P49286); assay: Melatonin receptor affinity, MT2R; format: binding
T1 sequence (P49286 1-362): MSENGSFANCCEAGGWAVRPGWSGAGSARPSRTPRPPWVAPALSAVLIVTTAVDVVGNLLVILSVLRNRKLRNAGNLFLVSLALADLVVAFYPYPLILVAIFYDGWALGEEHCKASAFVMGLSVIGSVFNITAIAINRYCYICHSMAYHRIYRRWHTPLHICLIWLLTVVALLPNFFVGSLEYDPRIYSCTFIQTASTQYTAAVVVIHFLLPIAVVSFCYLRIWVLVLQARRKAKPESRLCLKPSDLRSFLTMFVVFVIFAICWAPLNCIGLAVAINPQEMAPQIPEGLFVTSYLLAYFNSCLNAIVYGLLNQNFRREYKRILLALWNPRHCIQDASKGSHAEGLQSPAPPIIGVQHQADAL
Description: (§1) Tasimelteon is a white to off-white powder with a melting point of about 78° C. […] Tasimelteon has 2-4 times greater affinity for MT2R relative to MT1R.

[2] = tested on: blind individuals with Non-24; assay: RESET Study, randomized withdrawal, maintenance of effect; format: in vivo, human
Description: Patients were treated with tasimelteon for at least twelve weeks during an open-label run-in phase during the SET Study. Patients who responded to tasimelteon treatment during the run-in phase were then randomized to receive either placebo or tasimelteon (20 mg/day) for 2 months.
The primary endpoint of the RESET Study was the maintenance of effect as measured by entrainment of the melatonin (aMT6s) rhythm.
The RESET study also assessed a number of secondary endpoints including maintenance of entrainment of the cortisol rhythm and a range of sleep and wake parameters including LQ-nTST (total nighttime sleep in the worst 25% of nights), UQ-dTSD (total daytime sleep duration in the worst 25% of days) and MoST (midpoint of sleep timing from both nighttime and daytime sleep).

[3] = Effect of smoking on pharmacokinetics of tasimelteon and metabolites; format: in vivo, human
Source text: Smokers were defined as those smoking 10 or more cigarettes per day. Non-smokers were defined as those smoking no cigarettes per day.

[4] = Solubility and pH of saturated solution; format: physicochemical
Description: as §1

Non-24 patients = assay: Entrainment by peak aMT6s level and beta blocker use (clinical studies); format: in vivo, human
Description: Results of clinical study also show a strong correlation between endogenous melatonin and efficacy of tasimelteon in entraining patients to a 24 hour circadian rhythm. The following table (Table 3A) compares the peak aMT6s levels in the 24 entrained and 23 non-entrained patients.
Data from these studies currently available also indicate that beta blocker therapy is […] related to efficacy of tasimelteon, i.e., patients receiving beta blocker therapy were less likely to become entrained than patients who were not.

[5] = Tasimelteon exposure with Rifampin (CYP3A4 inducer); format: in vivo, human; conditions: single 20 mg dose after 11 days of 600 mg Rifampin
Description: For example, when a single 20 mg dose of tasimelteon was administered after 11 days of the administration of 600 mg of Rifampin, tasimelteon mean exposure was reduced by approximately 89%. Therefore, in cases where an individual is co-administered a CYP3A4 inducer, the dose of tasimelteon administered may be greater than if administered alone or in the absence of a CYP3A4 inducer.

[6] = 20 mg/day, SET secondary endpoint
[7] = 20 mg/day, sensitivity analysis
[8] = RESET, higher number indicates improvement

## CCC(=O)NC[C@@H]1C[C@H]1c1cccc2c1CCO2 (relative stereo) [Tasimelteon, trans-N-[[2-(2,3-dihydrobenzofuran-4-yl)cycloprop-1yl]methyl]propanamide]
Patients with Non-24; 20 mg/day oral, SET primary endpoint
  Entrainment (aMT6s): 20.0%
Patients with Non-24; 20 mg/day, SET
  LQ-nTST (LS mean minutes): 57.0 min
  MoST (LS mean minutes): 34.8 min
Patients with Non-24; 20 mg/day, SET primary endpoint
  Clinical Response (Entrainment + N24CRS >=3): 23.7%
Patients with Non-24; [6]
  Entrainment (cortisol): 17.5%
  N24CRS (LS mean minutes): 1.77 min
Patients with Non-24; 20 mg/day, SET, smaller numbers indicate improvement
  UQ-dTSD (LS mean minutes): -46.2 min
Patients with Non-24; [7]
  Clinical Response (Entrainment + N24CRS >=2): 28.9%
  N24CRS >=2: 57.9%
  N24CRS >=3: 28.9%
Patients with Non-24; 20 mg/day, smaller numbers indicate improvement
  CGI-C (LS mean minutes): 2.6 min
Patients with Non-24; SET study
  safety and tolerability: safe and well tolerated
Patients with Non-24; on drug at least two circadian cycles, not on beta blockers, tau<24.7 hours
  percentage of entrained patients: approximately 85%
Patients with Non-24; only subjects with significant sleep and nap problems at baseline
  LQ-nTST and UQ-dTSD >=90 min: 23.8%
Patients with Non-24; sensitivity analysis
  LQ-nTST and UQ-dTSD >=45 min: 31.6%
[1]
  Tmax: approximately one-half; also recorded: about one-half
MT2R
  greater affinity for MT2R relative to MT1R: 2-4 times
[2]; 20 mg/day, RESET
  maintenance of entrainment (cortisol): 80.0%
[2]; 20 mg/day, RESET primary endpoint
  Maintenance of entrainment (aMT6s): 90.0%
[2]; [8]
  LQ-nTST (LS mean minutes): -6.6 min
  MoST (LS mean minutes): 19.8 min
[2]; RESET, lower number indicates improvement
  UQ-dTSD (LS mean minutes): -9.6 min
[2]; tasimelteon vs placebo
  LQ-nTST (LS mean minutes), Difference: 67.2 min
  MoST (LS mean minutes), Difference: 36.0 min
  UQ-dTSD (LS mean minutes), Difference: -59.4 min
  maintenance of entrainment (cortisol), Difference: 60.0%
[3]; Non-Smokers
  CL/F: 1,482 ± 1,008 mL/min
[3]; Smokers
  CL/F: 2,290 ± 1,232 mL/min
[3]; Smokers vs Non-Smokers
  AUC (inf), Geometric Mean Ratio: 60.14%
  CL/F, Geometric Mean Ratio: 166.27%
  Cmax, Geometric Mean Ratio: 63.98%
  Vz/F, Geometric Mean Ratio: 144.39%
  t½, Geometric Mean Ratio: 86.84%
[4]
  effect of pH on aqueous solubility: practically unaffected by pH
  native pH of a saturated solution in water: 8.5
[4]; 95% ethanol, methanol, acetonitrile, ethyl acetate, isopropanol, PEG-300 and PEG-400
  solubility in organic solvents: very soluble or freely soluble
[4]; water
  solubility in water: only slightly soluble
Non-24 patients; Peak aMT6s <1500 ng/hr
  Entrained patients: 12 (41%)
  Non-entrained patients: 17 (59%)
Non-24 patients; Peak aMT6s <2000 ng/hr
  Entrained patients: 13 (38%)
  Non-entrained patients: 21 (62%)
Non-24 patients; Peak aMT6s ≥1500 ng/hr
  Entrained patients: 12 (67%)
  Non-entrained patients: 6 (33%)
Non-24 patients; Peak aMT6s ≥2000 ng/hr
  Entrained patients: 11 (85%)
  Non-entrained patients: 2 (15%)
Non-24 patients; Peak aMT6s: All (47 patients)
  Entrained patients: 24 (51%)
  Non-entrained patients: 23 (49%)
Non-24 patients; Taking Beta Blocker: No
  Entrained patients: 24
  Non-entrained patients: 19
Non-24 patients; Taking Beta Blocker: Yes
  Entrained patients: 0
  Non-entrained patients: 4
Non-24 patients; baseline aMT6s excretion rate >2000 ng/hr
  patients who responded to therapy: Eleven of thirteen
[5]
  reduction of tasimelteon mean exposure: approximately 89%
